This is an account of results in patent publication US20150087627A1, “COMBINATION OF KINASE INHIBITORS AND USES THEREOF” (Intellikine LLC, priority 2011, published 2015).

In general, TGI refers to the reduction of tumour growth relative to the control group.

Experiment [1] has as its system HCT-116 human colorectal cancer xenografts. The experiment in a line: Antitumor activity, HCT-116 xenografts (Example 44). It is filed as in vivo, Mus musculus. To be noted: Day 21. As to the method:
Compound A was prepared in PEG400 (TCAL, San Diego, Calif., USA) every 7 days and stored at room temperature, shielded from light. The vehicle used in this study was PEG400 (Sigma, St. Louis, Mo., USA).
Low passage (passage number 8) HCT-116 cells (American Type Culture Collection ATCC, Manassas, Va., USA) were grown in McCoy's 5A (ATCC) media with 10% fetal bovine serum (FBS) (PAA Laboratories Pty Ltd, Morningside, Queensland, Australia) and supplied at a concentration of 5.0×10^7 cells/mL. HCT-116 cells (5.0×10^6/animal, 0.1-mL injection volume) were implanted SC into the flank of female athymic nude mice. The animals used in this study are described in the following table.
Female 9 to 10-week-old female Foxn1 nu Hsd:Athymic nude mice were inoculated SC in the flank with 5.0×10^6 HCT-116 cells. Tumor growth was monitored with vernier calipers. The MTV was calculated using the formula V=W^2×L/2. […] Tumor growth and body weight were measured twice per week. Percent TGI and body weight change were calculated on Day 21 while animals were on treatment. […] Antitumor activity was determined by calculating the percent TGI using Equation 1: % tumor growth inhibition (TGI)=(mean tumor volume [MTV] of the control group−MTV of a treated group)/MTV of the control group×100. […]
Drug combinations were assessed for synergy using observed AUC values. […]

Experiment [2] deals with HCC70 human breast cancer xenografts. Nature of the experiment: Antitumor activity, multiple dosing schedules, HCC70 xenografts (Example 43). To be noted: Day 35. It counts as in vivo, Mus musculus. Here is the method:
Compound A was prepared in 5% NMP+95% PEG400 every 5-7 days and stored at approximately 25° C., shielded from light. The control article used in this study was 5% NMP+95% PEG400. Compounds were completely dissolved in NMP by sonication followed by the addition of the appropriate volume of PEG400. The solution was vortexed and sonicated again to ensure complete mixing.
Low passage HCC70 cells (ATCC) were grown in RPMI (Life Technologies) supplemented with 10% Fetal Bovine Serum (FBS) (PAA Laboratories Pty Ltd) and 1× penicillin-streptomycin (Life Technologies) and supplied at a concentration of 5.0×10^7 cells/mL in serum-free RPMI and 50% Matrigel (BD Biosciences). HCC70 cells (5.0×10^6 cells/animal, 0.1-mL injection volume) were implanted subcutaneously (SC) into flank of female athymic nude mice. The animals used in this study are described in the following table.
Five-week old female athymic nude mice were inoculated SC in flank (cell suspension in serum free RPMI and 50% Matrigel) with 5.0×10^6 HCC70 cells. Tumor growth was monitored with vernier calipers. The mean TV (MTV) was calculated using the formula V=W^2×L/2. When the MTV reached approximately 160 to 180 mm^3, the animals were randomized into 13 treatment groups (n=5/group). […] Tumor growth and body weight were measured twice per week. Percent TGI and body weight change were calculated on Day 35. Treatment started on Day 0 for 28 days. Antitumor activity was determined by calculating the percent TGI using Equation 1: Percent TGI=(mean tumor volume [MTV] of the control group−MTV of a treated group)/MTV of the control group×100.
The differences in the tumor growth trends over time between pairs of treatment groups were assessed using linear mixed effects regression models. These models account for the fact that each animal was measured at multiple time points. A separate model was fit for each comparison, and the area under the curve (AUC) values for each treatment group were calculated using the predicted values from the model. The percent decrease in AUC (ΔAUC) relative to the reference group was then calculated.
Drug combinations were assessed for synergy using observed AUC values. The change in AUC relative to the control was calculated for both single agent treatment groups as well as the combination group. The interaction between the two compounds was then assessed by comparing the change in AUC observed in the combination group to the sum of the changes observed in both single agents. The results can be divided into four categories: synergistic, additive, sub-additive, and antagonistic. Further details regarding combination analyses are provided in the appendix. All p values less than 0.05 were considered significant.

For the compound `CC(C)n1nc(-c2ccc3oc(N)nc3c2)c2c(N)ncnc21` [Compound B], the TGI in experiment [1] (0.6 mg/kg PO QD 5on/2off for 21 days, not significantly different from control) was found to be 4.5%; in experiment [2] (0.3 mg/kg QD PO), 36.9%; in experiment [2] (1.0 mg/kg QD 3on/4off PO), 47.2%; in experiment [2] (3.0 mg/kg QW PO), 35.8%.
Turning to `Nc1nc2cc(-c3ccc4ncc(C(=O)N5CCOCC5)n4c3)ccc2o1` [Compound A], the TGI stood at 8.2% in experiment [1] (120 mg/kg PO QD for 21 days); 19.4% in experiment [2] (70 mg/kg QD 3on/4off PO, not significantly different from control); 41.0% in experiment [2] (140 mg/kg QD 3on/4off PO); 21.0% in experiment [2] (210 mg/kg QW PO, not significantly different from control); 40.8% in experiment [2] (420 mg/kg QW PO).
